{"source": "paper PMC9292003", "about": "“A β‐ketoacyl carrier protein reductase confers heat tolerance via the regulation of fatty acid biosynthesis and stress signaling in rice” (The New Phytologist, 2021)", "molecular_target": "T1, HTS1 (GST-HTS1) (Oryza sativa, UniProt Q7XMI8)", "T1 construct": "E. coli BL21; vector printed as pET30a", "experiment": "NADPH absorption at", "format": "biochemical", "conditions": "reductase activity; co-substrate printed as NADH in results, NADPH in methods"}
{"smiles": "CC(=O)CC(=O)SCCNC(=O)CCNC(=O)[C@H](O)C(C)(C)COP(=O)(O)OP(=O)(O)OC[C@H]1O[C@@H](n2cnc3c(N)ncnc32)[C@H](O)[C@@H]1OP(=O)(O)O", "note": "[acetoacetyl-CoA]", "values": [{"measurement": "NADPH absorption at 340 nm", "result": "High catalytic activity was detected in GST‐HTS1 after introducing acetoacetyl‐CoA and NADH"}]}
